This is an account of results in paper PMC10529643, “Discovery of ACE Inhibitory Peptides Derived from Green Coffee Using In Silico and In Vitro Methods” (Foods, 2023).

One data set relates to pepsin-pancreatin. Put plainly: In vitro gastrointestinal digestion simulation, pepsin then pancreatin, MS analysis. In kind it is in vitro ADME. The note with it: pepsin pH 2.0, 37 °C, 2 h then pancreatin 1% E/S w/w, pH 7.5, 37 °C, Q-TOF MS read-out. On the procedure: (§1) In vitro gastrointestinal digestion simulation was performed according to the method described by Fan et al. with minor modifications. Two peptides (CP2, CP3) were dissolved in ultrapure water at 1.0 mg/mL, respectively. The solutions were adjusted to pH 2.0 with […]. Then, pepsin (1% E/S, w/w) was added to peptide solutions and the mixtures were incubated at 37 °C for 2 h. Half of the two digests were terminated in digestion by increasing the temperature to 90 °C. After the other half were adjusted to pH 7.5 with […], pancreatin (1% E/S, w/w) was added and the systems were digested at 37 °C for 2 h. The reactions were then stopped by boiling for 10 min. Subsequently, solvents were centrifuged at 10,000 rpm for 10 min. The supernatants were lyophilized to collect and analyzed using Agilent 6545 series Q-TOF mass spectrometer (Agilent, Waldbronn, Germany). The ACE inhibitory activity of the digested peptide solutions was determined under the same conditions.

A further data set deals with pepsin. Put plainly: In vitro gastrointestinal digestion simulation, pepsin step, MS analysis. It counts as in vitro ADME. To be noted: 1.0 mg/mL peptide, pepsin 1% E/S w/w, pH 2.0, 37 °C, 2 h; Q-TOF MS read-out. As for the experimental part:
as §1

The next data set deals with ACE. To be noted: cited from earlier work.
For data set [1], the system named is Angiotensin converting enzyme (ACE). Briefly: In vitro ACE inhibitory activity assay with FAPGG substrate. It counts as biochemical. To be noted: captopril at 0.1 μM, 37 °C, 30 min, absorbance 340 nm. As for the experimental part: The peptides predicted with potential antihypertensive capacity were synthesized by GenScript. The ACE inhibitory capacity of hydrolysates and selected peptides were measured as previously described with minor modifications; 400 μL of samples (hydrolysates, synthesized peptides dissolved in the HEPES-NaCl buffer at a concentration of 1.25 mg/mL, 125 μM separately) were mixed with 100 μL of ACE (0.2 U/mL). After incubation of the mixture at 37 °C for 10 min, 500 μL of FAPGG was added and the absorbance value at 340 nm was detected instantly by a FlexStation 3 and recorded as A0 min. After being kept at 37 °C for 30 min, the absorbance value at 340 nm was detected again and recorded: ACE inhibitory rate%=∆Acontrol−∆Asample/∆Acontrol×100% where A0 min is the initial absorbance at 340 nm; A30 min is the absorbance at 340 nm after keeping at 37 °C for 30 min, and ΔA is the reduction in the absorbance: A0 min–A30 min.

Where two headings read alike, the source gives them in different places. Ends that are not written are not given here.

Take ITPPVMLPP [CP3]: the “stability against successive pepsin and pancreatin digestion” value in the data set with pepsin-pancreatin is “Great changes in the MS analysis”. Further, the “stability against pepsin digestion” value with pepsin is reported as “Only a small amount of CP3 was degraded”.

For QLDL, the ACE inhibition pattern entry in the data set on ACE (from the mycelia of Ganoderma Lucidum) is on record as “noncompetitive”.

Take VFDGVLRPGQ: in the data set with ACE (from rice bran protein), the ACE inhibition pattern entry was “noncompetitive”.

In the case of QAGLSPVR, the ACE inhibition pattern result with ACE (from tilapia skin gelatin) is given as “noncompetitive”.

Regarding `C[C@H](CS)C(=O)N1CCC[C@H]1C(=O)O` [Captopril, captopril], in data set [1], the “ACE inhibition (%)” value came to 97.5%.

On to VGLPPNSR, for which the ACE inhibition pattern result with ACE (from tilapia skin gelatin) is “noncompetitive”.

With IIPNEVY [CP2], in the data set on pepsin-pancreatin, the “stability against successive pepsin and pancreatin digestion” value is reported as “new peptide sequences were detected”. The “stability against pepsin digestion” value in the data set with pepsin is recorded as “well resistant in gastric digestion”.
